Results: US5484940A, “Substituted 3-indolyl-5-pyrazolone compounds” (priority 1994, dated 1996)

Columns and labels:
[1] = tested on: β-amyloid peptide production; test: Cellular screen for inhibitors of β-amyloid production (ELISA, 293 751 SWE cells); type: cell-based, human; details: 2 h pretreatment + 2 h, normalized for cytotoxicity (MTT), concentration not given
Protocol: (§1) This screening assay employed cells (K293=human kidney cell line) which were stably transfected with the gene for amyloid precursor protein 751 (APP751) containing the double mutation Lys651 Met652 to Asn651 Leu652 (APP751 numbering) in the manner described in International Patent Application Publication No. 94/10569^1 and Citron et al.^16. This mutation is commonly called the Swedish mutation and the cells, designated as "293 751 SWE", were plated in Coming 96-well plates at 1.5-2.5×10^4 cells per well in Dulbecco's minimal essential media plus 10% fetal bovine serum. Cell number is important in order to achieve β-amyloid ELISA results within the linear range of the assay (~0.2 to 2.5 ng per mL).
Following overnight incubation at 37° C. in an incubator equilibrated with 10% carbon dioxide, media were removed and replaced with 200 μL of a substituted 3-indolyl-5-pyrazolone (drug) containing media per well for a two hour pretreatment period and cells were incubated as above.
At the end of the pretreatment period, the media were again removed and replaced with fresh drag containing media as above and cells were incubated for an additional two hours. After treatment, plates were centrifuged in a Beckman GPR at 1200 rpm for five minutes at room temperature to pellet cellular debris from the conditioned media. From each well, 100 μL of conditioned media or appropriate dilutions thereof were transferred into an ELISA plate precoated with antibody 266 against amino acids 13-28 of β-amyloid peptide as described in International Patent Application Publication No. 94/10569^1 and stored at 4° C. overnight. An ELISA assay employing labelled antibody 6C6 against amino acids 1-16 of β-amyloid peptide was run the next day to measure the amount of β-amyloid peptide produced.
The results of the β-amyloid peptide ELISA were fit to a standard curve and expressed as ng/mL β-amyloid peptide. […] All results are the mean and standard deviation of at least six replicate assays.

293 751 SWE cells = test: Cytotoxicity (MTT) in 293 751 SWE cells; type: cell-based, human; details: concentration not given
Protocol: as §1
Cytotoxic effects of the compounds were measured by a modification of the method of Hansen, et al.^17. To the cells remaining in the tissue culture plate was added 25 μL of a 3,(4,5-dimethylthiazol-2-yl)2,5-diphenyltetrazolium bromide (MTT) stock solution (5 mg/mL) to a final concentration of 1 mg/mL. Cells were incubated at 37° C. for one hour, and cellular activity was stopped by the addition of an equal volume of MTT lysis buffer (20% w/v sodium dodecylsulfate in 50% dimethylformamide, pH 4.7). Complete extraction was achieved by overnight shaking at room temperature. The difference in the OD562nm and the OD650nm was measured in a Molecular Device's UVmax microplate reader as an indicator of the cellular viability.

## COc1ccc2c(c1)c(CC1=NN(C3CCCC3)C(=O)C1)c(C)n2C(=O)c1ccc(Cl)cc1 [Example 11, 3-[1-(4-chlorobenzoyl)-5-methoxy-2-methyl-3-indolylmethyl]-1-cyclopentyl-5-pyrazolone]
[1]
  reduction of β-amyloid peptide production as compared to control: at least 20%
293 751 SWE cells
  cytotoxic effect on the 293 751 SWE cells: did not have a significant cytotoxic effect

## COc1ccc2c(c1)c(CC1=NN(C3CCCCCC3)C(=O)C1)c(C)n2C(=O)c1ccc(Cl)cc1 [Example 12, 3-[1-(4-chlorobenzoyl)-5-methoxy-2-methyl-3-indolylmethyl]-1-cycloheptyl-5-pyrazolone]
[1]
  reduction of β-amyloid peptide production as compared to control: at least 20%
293 751 SWE cells
  cytotoxic effect on the 293 751 SWE cells: did not have a significant cytotoxic effect

## COc1ccc2c(c1)c(CC1=NN(Cc3ccccc3)C(=O)C1)c(C)n2C(=O)c1ccc(Cl)cc1 [Example 13, 3-[1-(4-chlorobenzoyl)-5-methoxy-2-methyl-3-indolylmethyl]-1-benzyl-5-pyrazolone]
[1]
  reduction of β-amyloid peptide production as compared to control: at least 20%
293 751 SWE cells
  cytotoxic effect on the 293 751 SWE cells: did not have a significant cytotoxic effect

## CCCC(CCC)N1N=C(Cc2c(C)n(C(=O)c3ccc(Cl)cc3)c3ccc(OC)cc23)CC1=O [Example 16, 3-[1-(4-chlorobenzoyl)-5-methoxy-2-methyl-3-indolylmethyl]-1-(4-heptyl)-5-pyrazolone]
[1]
  reduction of β-amyloid peptide production as compared to control: at least 20%
293 751 SWE cells
  cytotoxic effect on the 293 751 SWE cells: did not have a significant cytotoxic effect

## COc1ccc2[nH]c(C)c(CC3=NN(C4CCCCC4)C(=O)C3)c2c1 [Example 17, 3-(5-methoxy-2-methyl-3-indolylmethyl)-1-cyclohexyl-5-pyrazolone]
[1]
  reduction of β-amyloid peptide production as compared to control: at least 20%
293 751 SWE cells
  cytotoxic effect on the 293 751 SWE cells: did not have a significant cytotoxic effect

## COc1ccc2c(c1)c(CC1=NN(C3CCCCC3)C(=O)C1)c(C)n2Cc1ccccc1 [Example 20, 3-(1-benzyl-5-methoxy-2-methyl-3-indolylmethyl)-1-cyclohexyl-5-pyrazolone]
[1]
  reduction of β-amyloid peptide production as compared to control: at least 20%
293 751 SWE cells
  cytotoxic effect on the 293 751 SWE cells: did not have a significant cytotoxic effect

## COc1ccc2c(c1)c(CCC1=NN(C3CCCCC3)C(=O)C1)c(C)n2C(=O)c1ccc(Cl)cc1 [Example 21, 3-[1-(4-chlorobenzoyl)-5-methoxy-2-methyl-3-indolylethyl]-1-cyclohexyl-5-pyrazolone]
[1]
  reduction of β-amyloid peptide production as compared to control: at least 20%
293 751 SWE cells
  cytotoxic effect on the 293 751 SWE cells: did not have a significant cytotoxic effect

## Cc1c(CC2=NN(C3CCCCC3)C(=O)C2)c2ccccc2n1C(=O)c1ccc(Cl)cc1 [Example 22, 3-[1-(4-chlorobenzoyl)-2-methyl-3-indolylmethyl]-1-cyclohexyl-5-pyrazolone]
[1]
  reduction of β-amyloid peptide production as compared to control: at least 20%
293 751 SWE cells
  cytotoxic effect on the 293 751 SWE cells: did not have a significant cytotoxic effect

## COc1ccc2c(c1)c(CC1=NN(c3cccc(Br)c3)C(=O)C1)c(C)n2C(=O)c1ccc(Cl)cc1 [Example 28, 3-[1-(4-chlorobenzoyl)-5-methoxy-2-methyl-3-indolylmethyl]-1-(3-bromophenyl)-5-pyrazolone]
[1]
  reduction of β-amyloid peptide production as compared to control: < 20%

## COc1ccc2c(c1)c(CC1=NN(c3cccc(NC(C)=O)c3)C(=O)C1)c(C)n2C(=O)c1ccc(Cl)cc1 [Example 41, 3-[1-(4-chlorobenzoyl)-5-methoxy-2-methyl-3-indolylmethyl]-1-(3-acetamidophenyl)-5-pyrazolone]
[1]
  reduction of β-amyloid peptide production as compared to control: < 20%
